“Also recorded” adds a separate entry of the source.
Tests used:
[1] = test system: MMP-9 and other gelatinases; assay: Gelatin zymography of injured spinal cord extracts with metalloproteinase inhibitor control; format: biochemical, mouse; conditions: substrate gels incubated with 4 mM 1,10-phenanthroline
Description: Samples of spinal cord, prepared from the epicenter, were quick-frozen at −80° C. Each sample was weighed and homogenized in (1:4 weight to volume) in lysis buffer containing 50 mM Tris-HCl (pH 8.0), 150 mM NaCl, 1% NP-40, 0.5% deoxycholate, 0.1% SDS. Soluble and insoluble extracts were separated by centrifugation and stored at −20° C. Equal amounts of the supernatant were analyzed by gel zymography as previously described (Herron et al., 1986) on 10% SDS-polyacrylamide gels, copolymerized with substrate (1 mg/ml gelatin). The proteins were renatured by incubation in 2.5% Triton-X100, and then incubated in substrate buffer (50 mM Tris-HCl, […]) for 24 to 36 hours at 37° C. to enable the MMP-9 and other gelatinases to cleave the gelatin. After rinsing in water, each gel was stained with Coomassie Blue for 4 hours and destained in 50% methanol. Negative staining is indicative of the location of active protease bands. After exposure to SDS during gel separation, proenzymes, present in tissue extracts, are activated without proteolytic cleavage. To inhibit MMP proteolytic activities, substrate gels were incubated in substrate buffer with 4 mM 1,10-phenanthroline (Sigma, St. Louis, Mo.), as described (Adler et al. 1990) Development 110:211-220). This control ensured that the measured activity corresponded to matrix metalloproteinase activity. […]

[2] = test system: blood-spinal cord barrier; assay: Blood-spinal cord barrier permeability to horseradish peroxidase (HRP) after contusive spinal cord injury; format: in vivo, mouse; conditions: 24 hours post injury, GM 6001 100 mg/kg i.p. from 3 hours post injury, compared to wild type; for blood-spinal cord barrier permeability to HRP at the lesion epicenter: wild type mice, every 12 hours
Description: (§1) Adult, male mice (4-6 months of age), were anesthetized with 2.5% Avertin (0.02 ml/g bw, i.p.) and maintained at 37° C. throughout the experiment by using a warming blanket placed under the animal. […] Briefly, using aseptic techniques the spinous process and laminae of T8 were removed and a circular region of dura, approximately 2.4 mm in diameter, was exposed. After stabilization of the vertebral column, a 2 gm weight was dropped 5.0 cm onto the exposed dura. After injury, the overlying skin was closed with wound clips. Postoperative care included manual expression of each animal's bladder until recovery of reflex emptying.
(§2) Wild type mice were subjected to spinal cord injury as described in the previous section. […] Animals were treated every 12 hours (100 mg/kg in 4% methylcellulose, i.p.), for the first 3 days post injury.

[3] = test system: blood-spinal cord barrier; assay: Blood-spinal cord barrier permeability to luciferase after spinal cord injury; format: in vivo, mouse; conditions: 24 hours post injury, GM6001 begun at 3 hours after injury, N=6, vs vehicle N=4, P=0.04
Description: as §1, §2

neutrophils = assay: Neutrophil infiltration into the lesion (chloroacetate esterase stain) after spinal cord injury; format: in vivo, mouse; conditions: 24 hours post injury; GM6001 N=4 vs vehicle N=4; P=0.01
Description: Adult, male mice (4-6 months of age), were anesthetized with 2.5% Avertin (0.02 ml/g bw, i.p.) and maintained at 37° C. throughout the experiment by using a warming blanket placed under the animal. A contusive injury was performed based upon modifications of procedures originally described by Kuhn and Wrathall (1998) J. Neurotrauma 15:125-140. Briefly, using aseptic techniques the spinous process and laminae of T8 were removed and a circular region of dura, approximately 2.4 mm in diameter, was exposed. After stabilization of the vertebral column, a 2 gm weight was dropped 5.0 cm onto the exposed dura. After injury, the overlying skin was closed with wound clips. Postoperative care included manual expression of each animal's bladder until recovery of reflex emptying. […]
The protocol was as described by the manufacturer with several exceptions. […] The number of neutrophils within each of these sections was determined from digital images, captured with a CCD camera, as described in the preceding paragraph at 40×magnification. […] Only darkly stained structures, greater than 38 μm^2 (7 μm in diameter) were counted. For the rostral and caudal sections, the numbers of neutrophils within the entire cross sections were determined and summed. For the epicenter, neutrophils were quantified within specific regions of the cross section. […]

spinal cord injured mice = assay: Locomotor recovery after spinal cord injury, open field BBB Locomotor Rating Scale; format: in vivo, mouse; conditions: over 6 weeks post injury, GM6001 N=9 vs vehicle N=4, treatment 3 hours to 3 days post injury
Description: as §1, §2
This scale assesses 10 distinct categories that range from limb movement to tail position and involve detailed observations of joint movement, stepping, and coordination. […] Spinal cord injured animals were tested on days 1 and 3 post injury and weekly thereafter for 6 weeks. […] Positioning of the limbs and locomotion was then observed by either directly or indirectly (via the mirror) viewing the animal.

spinal cord white matter = assay: Area of residual white matter at the lesion epicenter (Luxol fast blue); format: in vivo, mouse; conditions: 42 days post injury, GM6001 vs vehicle, P=0.01
Description: Adult, male mice (4-6 months of age), were anesthetized with 2.5% Avertin (0.02 ml/g bw, i.p.) and maintained at 37° C. throughout the experiment by using a warming blanket placed under the animal. A contusive injury was performed based upon modifications of procedures originally described by Kuhn and Wrathall (1998) J. Neurotrauma 15:125-140. Briefly, using aseptic techniques the spinous process and laminae of T8 were removed and a circular region of dura, approximately 2.4 mm in diameter, was exposed. After stabilization of the vertebral column, a 2 gm weight was dropped 5.0 cm onto the exposed dura. After injury, the overlying skin was closed with wound clips. Postoperative care included manual expression of each animal's bladder until recovery of reflex emptying.
Wild type mice were subjected to spinal cord injury as described in the previous section. All mice were treated with either GM 6001 (AMS Scientific, Inc., Concord, Calif. 100 mg/kg in 4% methylcellulose, i.p.), a general inhibitor of MMPs, or vehicle (4% methylcellulose, i.p.), at 3 hours post injury. […]
The area of residual white matter at the epicenter was determined in vehicle-and drug-treated wild type mice at 42 days post injury. […] These sections were captured with a Spotcam camera mounted on a Nikon Optiphot and analyzed using Photoshop 6.0™. […] These pixels were quantified and expressed per unit area.

Row | Structure (SMILES) | gelatinolytic activity (inactive and active forms of MMP-9 and MMP-2) in gelatin zymography [1] | axial distribution of abnormal barrier permeability to HRP (segments rostral and caudal to the lesion) [2] | blood-spinal cord barrier permeability to HRP at the lesion epicenter ([2]; 100 mg/kg) | blood-spinal cord barrier permeability to HRP at the lesion epicenter ([2]; listed as GM 6001, 100 mg/kg) | abnormal barrier permeability to luciferase in the epicenter [3] | abnormal barrier permeability to luciferase in the epicenter ([3]; listed as GM 6001) | numbers of neutrophils within the lesion epicenter (neutrophils) | locomotor recovery (BBB Locomotor Rating Scale, 21 point scale) (spinal cord injured mice) | locomotor recovery (BBB Locomotor Rating Scale, 21 point scale) (spinal cord injured mice; listed as GM 6001) | area of residual white matter at the lesion epicenter (spinal cord white matter) | area of residual white matter at the lesion epicenter (spinal cord white matter; listed as GM 6001)
1 | c1cnc2c(c1)ccc1cccnc12 [1,10 phenanthroline, 1,10-phenanthroline] | completely blocked the gelatinolytic activity; also recorded: completely blocks the inactive and active forms |  |  |  |  |  |  |  |  |  | 
2 | CNC(=O)[C@H](Cc1c[nH]c2ccccc12)NC(=O)[C@@H](CC(=O)NO)CC(C)C [GM6001] |  | not observed | marked increase in permeability to HRP in the wild type mice as compared to | only light patches of HRP reaction product in the epicenter | significant reduction in barrier permeability | significantly attenuated | significant reduction in the numbers of neutrophils | greater locomotor | significant locomotor recovery as early as 3 days post injury and weekly thereafter | significantly greater preservation of white matter | significant preservation of white matter

From patent US20030139332A1, “Use of matrix metalloproteinase inhibitors to mitigate nerve damage” (The Regents of the University of California, priority 2001, published 2003)
